Where a SMILES comes first, the peptide text is derived from it.
Assays:
[1] = molecular target: T1, importin β (KPNB1) (Homo sapiens, UniProt Q14974); assay: Rango FRET detection of importin β-Rango dissociation; assay type: binding; conditions: DPR 10-mers added to importin β-bound Rango
T1 construct: pET30a 6His-S-Importin β(1-876); 6His (N); S-tag (N); made in house; host or cells: E. coli BL21(DE3)
Method: Full-length human importin β was expressed from pET30a-WT importin β (pKW485; [Chi et al., 1997]) at the Protein Expression Laboratory (PEL, National Cancer Institute, Frederick, MD). The transformed BL21DE3 cells were grown at 37°C in an 80L Bioflow 500 bioreactor (New Brunswick Scientific, Edison, NJ) until OD600nm = 0.6, cooled to 22°C and the expression was induced with 0.3 mM IPTG. After 12 hr induction, cells were harvested with the CARR continuous flow centrifuge and lysed in PBS with 10 mM imidazole and 5 mM TCEP with a 110EH Microfluidizer (Microfluidics, Westwood, MA) using 2 passes at 10,000 PSI under chilled conditions. The lysates were flash-frozen in liquid nitrogen and stored at −80°C. After thawing, the lysates were clarified and incubated with HIS-Select HF Nickel Affinity beads. The beads were washed with 10 mM imidazole/PBS and the protein eluted with 200 mM imidazole/PBS before dialysis in XB. The purified importin β was combined with a freshly thawed aliquot of Rango2-α1 (pK188) at 2.5:1 molar ratio ratio (12.5 µM importin β, 5 µM Rango) and supplemented with 3% glycerol. Measurement of Rango fluorescence emission in a spectrometer (see below) was used to verify the FRET-off state of the Rango/importin β mixture before freezing.
The expression of zz-RCC1 was induced at OD600nm = 0.4, followed by incubation at 22°C for 4 hr. The cells were washed with PBS, 10 mM Imidazole, 1 mM MgCl2, 5 mM TCEP, 0.2 mM AEBSF, pH 8.0, and lysed by ice-cold microfluidizer. The clarified lysates were used to isolate the zz-RCC1 proteins on HIS-Select HF Nickel Affinity beads, as described above. Proteins eluted with 0.2M imidazole/PBS were dialyzed in PBS before storage. The zz-RanQ69L (pKW1234; pK1097) was expressed from BL21DE3 cells at PEL in an 80L bioreactor, using conditions described for importin β above, except that expression was induced with 0.3 mM IPTG at 37°C for 3 hr, and lysis was performed in PBS with 10 mM Imidazole, 5 mM TCEP, 2 mM MgCl2, and 1 mM GTP. The lysates were clarified and bound to HIS-Select HF Nickel Affinity beads (Millipore Sigma). […]
FRET assays for DPR-induced dissociation of the importin β-Rango complex were performed using a mix of 5 µM Rango-2/α1 (pK188) and 12.5 µM importin β (pKW485) prepared as described above. […] Peak emissions were recorded at 480 nm (donor) and 535 nm (acceptor) in all samples, and background emission subtracted at the same wavelengths in the blank. The FRET signal was calculated as the ratio of background-subtracted acceptor/donor emissions. The signal detected in the untreated sample (20 nM Rango and 50 nM importin β-only, the lowest FRET), was then subtracted from the resulting values. […]

[2] = system: Rps25; assay: DPR aggregation assay and western blot, Rps25; assay type: biochemical, human; conditions: Fig 5-suppl 3C, normalized to untreated HEK on same membrane;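 note: RNA rows contain added 20 µg total HEK RNA while no-RNA rows lack it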
Source text: Supplement elife-51685-fig5-data1.xlsx, sheet "Figure 5-figure suppl 3" | column: Rps25

[3] = system: Ran; assay: DPR aggregation assay and western blot, Ran; assay type: biochemical, human; conditions: for Ran band density, % untr control: Fig 5-suppl 3C, normalized to untreated HEK on same membrane; for Ran band density, Pellet / Ran band density, Supernatant: 100 µM 10mer in 2.5 mg/ml HEK lysate, normalized to untreated HEK;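 for Ran band density, % untr control: RNA rows contain added 20 µg total HEK RNA while no-RNA rows lack it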
Method: Supernatant and pellet fractions (for all 5 DPRs, and control/buffer only) were prepared as in the nuclear transport assays, by adding 100 µM 10mers to 2.5 mg/ml HEK lysate in 100 µL TRB. Supernatants were boiled in Laemmli (BioRad) for 5 min. Pellets were boiled for 15 min followed by sonication in order to fully disperse aggregates for SDS-PAGE. Equal volumes of supernatant and pellet fractions were run on 4–12% Bolt Bis-Tris Plus gels (ThermoFisher), transferred to nitrocellulose membrane using an iBlot2 dry blotting system (ThermoFisher). Protein loading was analyzed by BLOT-Faststain (G-biosciences, St. Louis, MO), according to the manufacterers’ instructions. For immunodetection, membranes were blocked with 5% non-fat milk in TBST and probed by sequential incubation with the primary antibodies as detailed in the table below. Detection was by HRP-conjugated secondary antibodies/chemiluminescence using an ImageQuant LAS 4000 system (GE, Chicago, IL). To permit sequential probing of membranes without stripping, signals were quenched by incubation with prewarmed 30% H20_2 for 20 min ([Sennepin et al., 2009]). Band intensities were measured by ImageQuant software. For pellet vs. supernatant fractions, all were expressed as percent untreated control. For blots in Figure 1E, samples were run on 4–20% SDS PAGE minigels (ThermoFisher) and blotted to PVDF membranes (Immun-Blot PVDF, Bio-Rad) using the Bio-Rad TransBlot Turbo apparatus, and probed as above. The chemiluminescence signal was captured with a Bio-Rad ChemiDoc XRS+ digital imaging system.

[4] = Pellet, no RNA (Untreated), blot 1
[5] = Pellet, no RNA (Untreated), blot 2
[6] = Supernatant, no RNA (Untreated), blot 1
[7] = Supernatant, no RNA (Untreated), blot 2

T1 sequence (Q14974 whole entry): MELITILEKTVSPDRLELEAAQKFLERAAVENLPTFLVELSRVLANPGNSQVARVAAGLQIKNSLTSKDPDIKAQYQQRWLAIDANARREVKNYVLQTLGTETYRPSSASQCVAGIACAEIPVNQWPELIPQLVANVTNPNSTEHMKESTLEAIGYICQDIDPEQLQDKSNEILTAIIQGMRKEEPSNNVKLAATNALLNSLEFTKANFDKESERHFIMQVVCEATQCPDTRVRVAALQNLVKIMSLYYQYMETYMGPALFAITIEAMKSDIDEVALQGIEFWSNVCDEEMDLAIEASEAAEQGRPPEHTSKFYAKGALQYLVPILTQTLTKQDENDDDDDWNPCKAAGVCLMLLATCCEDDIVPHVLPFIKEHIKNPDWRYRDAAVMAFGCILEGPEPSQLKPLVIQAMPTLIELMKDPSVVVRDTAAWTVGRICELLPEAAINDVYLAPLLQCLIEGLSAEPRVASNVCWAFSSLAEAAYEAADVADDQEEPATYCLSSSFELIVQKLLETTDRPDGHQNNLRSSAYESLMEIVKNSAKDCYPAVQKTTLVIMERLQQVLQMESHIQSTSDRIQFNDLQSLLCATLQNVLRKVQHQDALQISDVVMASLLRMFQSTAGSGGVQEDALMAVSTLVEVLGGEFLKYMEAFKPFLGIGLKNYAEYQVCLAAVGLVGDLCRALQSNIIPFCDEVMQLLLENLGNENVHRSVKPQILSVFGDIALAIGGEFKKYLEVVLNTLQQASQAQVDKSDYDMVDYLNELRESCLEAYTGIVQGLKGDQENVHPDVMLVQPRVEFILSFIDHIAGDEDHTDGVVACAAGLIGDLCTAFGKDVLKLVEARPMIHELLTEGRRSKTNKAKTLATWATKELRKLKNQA

Effect on Rango FRET [1]	Compound	Rps25 band density, % untr control ([2]; Pellet, RNA, blot 1)	Rps25 band density, % untr control ([2]; Pellet, RNA, blot 2)	Rps25 band density, % untr control [2, 4]	Rps25 band density, % untr control [2, 5]	Rps25 band density, % untr control ([2]; Supernatant, RNA, blot 1)	Rps25 band density, % untr control ([2]; Supernatant, RNA, blot 2)	Rps25 band density, % untr control [2, 6]	Rps25 band density, % untr control [2, 7]	Ran band density, % untr control ([3]; Pellet, RNA, blot 1)	Ran band density, % untr control ([3]; Pellet, RNA, blot 2)	Ran band density, % untr control [3, 4]	Ran band density, % untr control [3, 5]	Ran band density, % untr control ([3]; Supernatant, RNA, blot 1)	Ran band density, % untr control ([3]; Supernatant, RNA, blot 2)	Ran band density, % untr control [3, 6]	Ran band density, % untr control [3, 7]	other results
did not affect Rango FRET	GPGPGPGPGPGPGPGPGPGPKC [GP10, Synthetic 10-mer GP dipeptide repeat with C-terminal lysine and cysteine]	–	–	–	–	–	–	–	–	–	–	–	–	–	–	–	–	–
did not affect Rango FRET	GA10: Synthetic 10-mer GA dipeptide repeat with C-terminal lysine and cysteine (GAGAGAGAGAGAGAGAGAGAKC)	48.52%	61.57%	84.83%	128.35%	121.04%	82.85%	112.04%	76.84%	129.05%	192.76%	79.12%	116.78%	116.22%	99.76%	117.84%	105.67%	–
did not affect Rango FRET	PA10: Synthetic 10-mer PA dipeptide repeat with C-terminal lysine and cysteine (PAPAPAPAPAPAPAPAPAPAKC)	–	–	–	–	–	–	–	–	–	–	–	–	–	–	–	–	–

Compound	Effect on Rango FRET [1]	Rps25 band density, % untr control ([2]; Pellet, RNA, blot 1)	Rps25 band density, % untr control ([2]; Pellet, RNA, blot 2)	Rps25 band density, % untr control [2, 4]	Rps25 band density, % untr control [2, 5]	Rps25 band density, % untr control ([2]; Supernatant, RNA, blot 1)	Rps25 band density, % untr control ([2]; Supernatant, RNA, blot 2)	Rps25 band density, % untr control [2, 6]	Rps25 band density, % untr control [2, 7]	Ran band density, % untr control ([3]; Pellet, RNA, blot 1)	Ran band density, % untr control ([3]; Pellet, RNA, blot 2)	Ran band density, % untr control [3, 4]	Ran band density, % untr control [3, 5]	Ran band density, % untr control ([3]; Supernatant, RNA, blot 1)	Ran band density, % untr control ([3]; Supernatant, RNA, blot 2)	Ran band density, % untr control [3, 6]	Ran band density, % untr control [3, 7]	other results
N=C(N)NCCC[C@H](NC(=O)[C@@H]1CCCN1C(=O)[C@H](CCCNC(=N)N)NC(=O)[C@@H]1CCCN1C(=O)[C@H](CCCNC(=N)N)NC(=O)[C@@H]1CCCN1C(=O)[C@H](CCCNC(=N)N)NC(=O)[C@@H]1CCCN1C(=O)[C@H](CCCNC(=N)N)NC(=O)[C@@H]1CCCN1C(=O)[C@H](CCCNC(=N)N)NC(=O)[C@@H]1CCCN1C(=O)[C@H](CCCNC(=N)N)NC(=O)[C@@H]1CCCN1C(=O)[C@H](CCCNC(=N)N)NC(=O)[C@@H]1CCCN1C(=O)[C@H](CCCNC(=N)N)NC(=O)[C@@H]1CCCN1C(=O)[C@H](CCCNC(=N)N)NC(=O)[C@@H]1CCCN1)C(=O)O [PR10] (H-PRPRPRPRPRPRPRPRPRPR-OH; N-terminus and C-terminus assumed)	dose-dependent increase in FRET	302.37%	467.96%	306.71%	525.42%	12.19%	16.30%	0.89%	1.06%	201.97%	271.01%	172.26%	224.02%	114.46%	110.30%	105.51%	113.60%	Ran band density, Pellet ([3]; Blot 1): 101.8 % control; Ran band density, Supernatant ([3]; Blot 1): 104.7 % control; Ran band density, Pellet ([3]; Blot 2): 132.9 % control; Ran band density, Supernatant ([3]; Blot 2): 105.7 % control

Source: paper PMC7051184, “C9orf72 arginine-rich dipeptide repeat proteins disrupt karyopherin-mediated nuclear import” (eLife, 2020)
